Experimental data taken from ChEMBL document CHEMBL5303304, “EUbOPEN Chemogenomics Library - IncuCyte” (2023).

Tests used:
Format in all cases: toxicity, cell-based
[1] = test system: HEK-293T; assay: Incucyte cell viability with HEK293T; settings: human, 10 µM, compound concentration 10 uM
[2] = test system: Fibroblast; assay: Incucyte cell viability with human fibroblast; settings: 10 µM, compound concentration 10 uM
[3] = test system: U2OS; assay: Incucyte cell viability with U2OS; settings: human, 10 µM, compound concentration 10 uM
Also: unitless GR value; below 1 slowed growth and below 0 cell loss.

Row | SMILES | Growth Rate ([1]; 6 h, replicate number 1) | Growth Rate ([1]; 12 h, replicate number 1) | Growth Rate ([1]; 12 h, replicate number 2) | Growth Rate ([1]; 18 h, replicate number 1) | Growth Rate ([1]; 18 h, replicate number 2) | Growth Rate ([1]; 24 h, replicate number 1) | Growth Rate ([1]; 24 h, replicate number 2) | Growth Rate ([2]; 6 h, replicate number 2) | Growth Rate ([2]; 12 h, replicate number 2) | Growth Rate ([2]; 18 h, replicate number 2) | Growth Rate ([3]; 24 h, replicate number 1) | Growth Rate ([2]; 6 h, replicate number 1) | Growth Rate ([2]; 18 h, replicate number 1) | Growth Rate ([2]; 24 h, replicate number 1) | Growth Rate ([3]; 6 h, replicate number 1) | Growth Rate ([3]; 12 h, replicate number 1) | Growth Rate ([3]; 12 h, replicate number 2) | Growth Rate ([3]; 18 h, replicate number 1) | Growth Rate ([3]; 18 h, replicate number 2) | Growth Rate ([3]; 24 h, replicate number 2) | other results
1 | Cc1c(NC(=O)c2ccc(C(C)(C)C)cc2)cccc1-c1cn(C)c(=O)c(Nc2ccc(C(=O)N3CCOCC3)cc2)n1 | 0.48 | 0.38 | 0.51 | 0.53 | 0.35 | 0.63 | 0.48 | -0.1 | 0.63 | 0.72 | 0.97 |  |  |  |  |  |  |  |  |  | 
2 | CC1=C(C(=O)OCCO)[C@@H](c2ccc(C#N)cc2)NC(=O)N1c1cccc(C(F)(F)F)c1 | 0.61 | 0.73 | 0.75 | 0.68 | 0.71 | 0.67 | 0.97 |  |  | 0.92 |  |  |  |  |  |  |  |  |  |  | Growth Rate ([2]; 0 h, replicate number 2): -0.51; Growth Rate ([3]; 0 h, replicate number 2): 0.55
3 | O=C(CCCCCCc1ccccc1)c1ncc(-c2ccccn2)o1 | 0.7 | 0.79 | 0.88 | 0.76 | 0.88 | 0.8 | 0.97 | 0.12 | 0.63 | 0.85 | 0.87 | 0.4 | 0.96 | 0.93 | 0.84 | 0.58 |  |  |  |  | Growth Rate ([2]; 0 h, replicate number 1): -0.98; Growth Rate ([2]; 24 h, replicate number 2): 0.84; Growth Rate ([3]; 0 h, replicate number 1): 0.55
4 | COc1ccccc1N1CCN(c2ncnc3c2cnn3-c2ccccc2)CC1 | 0.67 | 0.99 | 0.98 |  |  |  |  |  | 0.94 |  | 0.25 | -0.03 | 0.39 | 0.48 |  | 0.47 | 0.93 | 0.13 | 1 | 0.85 | Growth Rate ([1]; 6 h, replicate number 2): 0.19; Growth Rate ([2]; 0 h, replicate number 2): 0; Growth Rate ([2]; 12 h, replicate number 1): 0.42; Growth Rate ([2]; 24 h, replicate number 2): 0.91; Growth Rate ([3]; 0 h, replicate number 1): 0.75
5 | CNc1nc(-c2cc(C(=O)N3CCN(Cc4ccc(Cl)cc4)CC3)c(Cl)cn2)cs1 | 0.91 | 0.62 | 0.01 | 0.62 | 0.14 | 0.69 | 0.23 | -0.96 | -0.28 | -0.12 | 0.37 | -0.5 | -0.06 | 0.23 | -0.33 | 0.1 | 0.27 | 0.4 | 0.37 | 0.65 | Growth Rate ([1]; 6 h, replicate number 2): -0.49; Growth Rate ([2]; 0 h, replicate number 1): -1; Growth Rate ([2]; 12 h, replicate number 1): -0.19; Growth Rate ([2]; 24 h, replicate number 2): 0.18; Growth Rate ([3]; 0 h, replicate number 1): -0.54; Growth Rate ([3]; 0 h, replicate number 2): -0.41; Growth Rate ([3]; 6 h, replicate number 2): -0.21
6 | Cc1cc(-c2ccnc(Nc3cnn(C)c3)n2)ccc1CNC(=O)N1CC(OC(C)C)C1 | 0.37 | 0.72 |  | 0.79 |  | 0.98 |  |  |  |  | 0.89 | 0.47 | 0.97 | 0.75 | 0.99 | 0.8 |  | 0.98 |  |  | Growth Rate ([2]; 0 h, replicate number 2): -0.87; Growth Rate ([3]; 6 h, replicate number 2): 0.93
7 | COc1cc(C(=O)NCCOCCOCCOCC(=O)N[C@H](C(=O)N2C[C@H](O)C[C@H]2C(=O)NCc2ccc(-c3scnc3C)cc2)C(C)(C)C)ccc1Nc1ncc(C(F)(F)F)c(Oc2cccc3c2C(=O)CC3)n1 | 0.29 | -0.01 | 0.02 | 0 | -0.01 | 0.03 | -0.02 | -0.8 | 0.43 | 0.85 | 0.61 | 0.15 | 0.28 | 0.14 |  |  | 0.87 |  | 0.66 | 0.68 | Growth Rate ([2]; 0 h, replicate number 2): 0.72; Growth Rate ([2]; 12 h, replicate number 1): 0.45; Growth Rate ([2]; 24 h, replicate number 2): 0.84; Growth Rate ([3]; 0 h, replicate number 2): 0.63
8 | C[C@]12CC[C@@H]3c4ccc(O)cc4CC[C@H]3[C@@H]1C[C@H]1OC(=O)C[C@]12O | 0.27 | 0.37 | 0.34 | 0.36 | 0.67 | 0.53 | 0.86 | -0.98 | -0.36 | 0.13 | 0.6 | 0.09 | 0.55 | 0.77 | 0.43 | 0.21 | 0.26 | 0.38 | 0.65 | 0.72 | Growth Rate ([2]; 0 h, replicate number 1): -1; Growth Rate ([2]; 12 h, replicate number 1): 0.52; Growth Rate ([2]; 24 h, replicate number 2): 0.48; Growth Rate ([3]; 0 h, replicate number 1): 0.82; Growth Rate ([3]; 0 h, replicate number 2): 0.2; Growth Rate ([3]; 6 h, replicate number 2): -0.19
9 | O=C1CN(c2ccccc2F)C(NCCN2CCOCC2)=C1c1nc2cc(Br)ccc2c(=O)[nH]1 | 0.22 | 0.49 | 1 | 0.53 |  | 0.74 | 0.88 |  |  |  | 0.89 |  |  |  | 0.56 | 0.85 | 0.96 | 1 |  | 0.96 | Growth Rate ([1]; 6 h, replicate number 2): 0.74; Growth Rate ([2]; 0 h, replicate number 2): -0.37; Growth Rate ([3]; 0 h, replicate number 1): 0.24
10 | Cc1ccc2c(NS(=O)(=O)c3ccccc3Cl)cccc2c1Oc1ncccc1-c1ccnc(N[C@H]2CCCNC2)n1.Cl | 0.95 | 0.33 | 0.52 | 0.5 | 0.6 | 0.48 | 0.55 |  | 0.45 | 0.38 | 0.55 | 0.69 | 0.34 | 0.3 | 0.4 | 0.68 | 0.62 | 0.69 | 0.57 | 0.58 | Growth Rate ([2]; 0 h, replicate number 1): -1; Growth Rate ([2]; 12 h, replicate number 1): 0.21; Growth Rate ([2]; 24 h, replicate number 2): 0.49; Growth Rate ([3]; 0 h, replicate number 1): 0.22; Growth Rate ([3]; 0 h, replicate number 2): 0.32; Growth Rate ([3]; 6 h, replicate number 2): 0.75
11 | CCS(=O)(=O)Nc1cccc(Oc2cc(F)cc(Nc3ccc(I)cc3F)c2NS(=O)(=O)C2CC2)c1 | 0.37 | 0.34 | 0.42 | 0.6 | 0.5 | 0.61 | 0.48 | -0.17 |  |  | 0.78 | 0.24 |  |  | 0.85 | 0.89 | 0.78 | 0.91 | 1 |  | Growth Rate ([1]; 6 h, replicate number 2): -0.1; Growth Rate ([2]; 0 h, replicate number 1): -1; Growth Rate ([2]; 0 h, replicate number 2): 0.69
12 | CC(C)Nc1ncnc2cc(OCc3cccc([S@@](C)(=N)=O)c3)c(Br)cc12 | 0.65 | 0.67 | 0.73 | 0.82 | 0.81 | 0.82 | 0.87 |  |  |  | 0.93 |  |  |  |  |  |  |  |  |  | Growth Rate ([1]; 6 h, replicate number 2): 0.3; Growth Rate ([2]; 0 h, replicate number 1): -0.74
13 | COc1cc(-c2cc([C@H](O)C3CC3)n3ncnc(N)c23)ccc1CO | -0.7 | 0.16 | 0.26 | 0.62 | 0.76 | 0.74 | 0.87 |  |  |  | 0.8 |  |  |  |  |  | 0.85 |  | 0.89 | 0.91 | Growth Rate ([1]; 6 h, replicate number 2): -0.8; Growth Rate ([2]; 0 h, replicate number 2): 0.98; Growth Rate ([2]; 24 h, replicate number 2): 0.98
14 | CCC(C(=O)Nc1ccc(-c2cc3ccccc3s2)c(C(N)=O)c1)c1nccs1 (stereo not given) | 0.31 | 0.59 | 0.52 | 0.48 | 0.61 | 0.47 | 0.71 | -0.79 |  | 0.9 | 0.72 | 0.22 | 0.93 | 0.96 | 0.65 | 0.41 | 0.59 | 0.47 | 0.8 | 0.86 | Growth Rate ([1]; 6 h, replicate number 2): 0.23; Growth Rate ([2]; 12 h, replicate number 1): 0.72; Growth Rate ([3]; 0 h, replicate number 1): 0.65; Growth Rate ([3]; 6 h, replicate number 2): 0.92
